What is called IC50 is the concentration that inhibits the measured activity by half. Low values mean greater potency in that assay, high ones weaker potency in that assay.

Molecules are shown by their SMILES.

Results on one compound are retold here after patent US8278348B2, “Chondropsin-class antitumor V-atpase inhibitor compounds, compositions and methods of use thereof” (priority 2002, dated 2012).

Holding throughout (experiment): Two day XTT cytotoxicity assay
What all share (assay type): cell-based

The test system of one assay is A549. As to conditions: Homo sapiens, Breast. The source says:
(§1) This example describes the cytoxicity of poecillastrin A (1), isolated in Example 1. The cytotoxicity assay, details of which have been described previously (Bokesch et al., J. Nat. Prod. 1999, 62, 633-635), utilized melanoma (LOX), breast […], ovarian (OVCAR-3), and non-small cell lung (SNB-19) human tumor cell lines and IC-2^WT and IC-2^V814 murine mast cell lines (Hashimoto et al., Am. J. Pathol. 1996, 148, 189-200).
(§2) The in vitro 10 cell-line bioassay was a two day bioassay. Cells were grown in RPMI-1640 (Rosweli Park Memorial Institute) without L-glutamine, supplemented with 10% fetal bovine serum, 5.0 mL of a 200 mM glutamine stock, and 0.5 mL of gentamicin and plated out in T-162 cm^2 flasks. Once the cells were confluent, they were harvested and plated in 96-well microtiter flat-bottom plates at a seeding density of 50-10,000 cells per well, to yield optical density readings in the range of 1-2.0, and incubated for 1 h in a 37° C., 5% CO2 incubator. After the 1 h incubation, the cells were then introduced to the sample of poecillastrin A, via a Beckman Biomek Workstation-1000. The Biomek-1000 performed seven serial dilutions in a 96-well round-bottom plate and then transferred aliquots of 100 μL to the assay plate. The plate was then returned to the incubator for […]. After the two day incubation, the cells were exposed to tetrazolium salt, 2,3-bis[2-methoxy-4-nitro-5-sulfophenyl]-2H-tetrazolium-5-carboxanilide (XTT), for a 4 h incubation in a 37° C. incubator, where viable cells reduced the tetrazolium salt to a colored formazan product. Once the incubation was complete, the plates were read in a dual wavelength mode at 450 nm, with a 650 nm reference, using a SpectraMAX 250 (Molecular Devices) plate reader. Resulting data for each cell line are found in Table 3.

Another assay concerns IC-2 V814. As to conditions: Mus musculus, Murine mast cell.
Excerpt: as §1, §2

The next assay deals with IC-2 WT. As to conditions: Mus musculus, Murine mast cell.
Excerpt: as §1, §2

Another assay deals with LOX. The note with it: Homo sapiens, Melanoma.
Excerpt: as §1, §2

A further assay deals with OVCAR-3. As to conditions: Homo sapiens, Ovarian.
Excerpt: as §1, §2

A further assay has as its system SNB-19. The note with it: Homo sapiens, Non-small cell lung.
Excerpt: as §1, §2

Regarding `COC1/C=C/C=C/CC/C=C/C=C/C(=O)NC(C(O)C(=O)O)C(=O)OC(C(C)C(O)C(NC(=O)C(C)C(O)CCC(C)C(O)/C(C)=C/C(C)(C)C(O)C(CC(C)C)NC(=O)/C=C/C(C)(C)C(=O)C(C)C(O)C(C)C)C(C)O)C/C=C(\C)C(O)C(C)/C=C(\C)C(O)C(C)C(O)CC2CC(C)CC1O2` (stereo not drawn) [Poecillastrin A, poecillastrin A], the IC50 was > 10 µM in the assay with A549; 0.546 µM with IC-2 V814; 0.206 µM in the assay with IC-2 WT; 0.014 µM in the assay on LOX; 0.028 µM in the assay with OVCAR-3; > 10 µM in the assay with SNB-19.
